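Following 48 hours of exposure in 96-well plates, responses at five concentrations were used to interpolate endpoints linearly. TGI denotes the concentration required for complete inhibition of growth.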
What was measured:
Assay in all cases: NCI anticancer screen, dose series, 48 h
T-47D breast = tested on: T-47D breast
A498 renal = tested on: A498 renal
MDA-N = tested on: MDA-N
SNB-19 CNS = tested on: SNB-19 CNS
A549 NSCLC = tested on: A549 NSCLC
M14 melanoma = tested on: M14 melanoma
MDA-MB-231 breast = tested on: MDA-MB-231 breast
HS 578T breast = tested on: HS 578T breast
SK-MEL-2 melanoma = tested on: SK-MEL-2 melanoma
CCRF-CEM leukemia = tested on: CCRF-CEM leukemia
SF-539 CNS = tested on: SF-539 CNS
HCT-15 colon = tested on: HCT-15 colon
NCI-H23 lung = tested on: NCI-H23 lung
RPMI-8226 leukemia = tested on: RPMI-8226 leukemia
NCI-H522 lung = tested on: NCI-H522 lung
786-0 renal = tested on: 786-0 renal
MALME-3M melanoma = tested on: MALME-3M melanoma
SK-MEL-5 melanoma = tested on: SK-MEL-5 melanoma
KM12 colon = tested on: KM12 colon
SR leukemia = tested on: SR leukemia
NCI-H226 lung = tested on: NCI-H226 lung
MDA-MB-435 = tested on: MDA-MB-435
MCF7 breast = tested on: MCF7 breast
NCI/ADR-RES ovarian = tested on: NCI/ADR-RES ovarian
SN12C renal = tested on: SN12C renal
HOP-92 NSCLC = tested on: HOP-92 NSCLC
IGROV1 ovarian = tested on: IGROV1 ovarian
NCI-H460 lung = tested on: NCI-H460 lung
DU-145 prostate = tested on: DU-145 prostate
SF-295 CNS = tested on: SF-295 CNS
HCC-2998 colon = tested on: HCC-2998 colon
PC-3 prostate = tested on: PC-3 prostate
COLO 205 colon = tested on: COLO 205 colon
RXF 393 renal = tested on: RXF 393 renal
SK-OV-3 ovarian = tested on: SK-OV-3 ovarian
UO-31 renal = tested on: UO-31 renal
OVCAR-3 ovarian = tested on: OVCAR-3 ovarian
OVCAR-5 ovarian = tested on: OVCAR-5 ovarian
HL-60(TB) leukemia = tested on: HL-60(TB) leukemia
SNB-75 CNS = tested on: SNB-75 CNS
OVCAR-8 ovarian = tested on: OVCAR-8 ovarian
OVCAR-4 ovarian = tested on: OVCAR-4 ovarian
BT-549 breast = tested on: BT-549 breast
SK-MEL-28 melanoma = tested on: SK-MEL-28 melanoma
CAKI-1 renal = tested on: CAKI-1 renal
HOP-62 NSCLC = tested on: HOP-62 NSCLC
U251 CNS = tested on: U251 CNS

With `Cn1c(CCC2(C)Cc3ccccc3C(=O)O2)cc2ccccc2c1=O` (configuration not stated) the TGI (T-47D breast) was 83.3 µM, the TGI (A498 renal) was greater than 100 µM and the TGI (MDA-N) was 49.8 µM. It also gave a TGI (SNB-19 CNS) greater than 100 µM, a TGI (A549 NSCLC) greater than 100 µM and a TGI (M14 melanoma) of 33.5 µM. For the same compound, the TGI (MDA-MB-231 breast) was greater than 100 µM, the TGI (HS 578T breast) was greater than 100 µM and the TGI (SK-MEL-2 melanoma) was 64.9 µM. It also gave a TGI (CCRF-CEM leukemia) of 27 µM, a TGI (SF-539 CNS) of 74.4 µM and a TGI (HCT-15 colon) greater than 100 µM. The TGI (NCI-H23 lung) was 83 µM, the TGI (RPMI-8226 leukemia) was 48 µM and the TGI (NCI-H522 lung) was 44.2 µM. For the same compound, the TGI (786-0 renal) was greater than 100 µM, the TGI (MALME-3M melanoma) was greater than 100 µM and the TGI (SK-MEL-5 melanoma) was 30.9 µM. The TGI (KM12 colon) was 23.3 µM, the TGI (SR leukemia) was greater than 100 µM and the TGI (NCI-H226 lung) was 54.7 µM. It also gave a TGI (MDA-MB-435) of 41.9 µM, a TGI (MCF7 breast) of 56.3 µM and a TGI (NCI/ADR-RES ovarian) greater than 100 µM. The TGI (SN12C renal) was greater than 100 µM, the TGI (HOP-92 NSCLC) was greater than 100 µM and the TGI (IGROV1 ovarian) was 86.6 µM. For the same compound, the TGI (NCI-H460 lung) was 76.8 µM, the TGI (DU-145 prostate) was 59.8 µM and the TGI (SF-295 CNS) was greater than 100 µM. It also gave a TGI (HCC-2998 colon) greater than 100 µM, a TGI (PC-3 prostate) of 46.5 µM and a TGI (COLO 205 colon) of 84 µM. For the same compound, the TGI (RXF 393 renal) was 64.4 µM, the TGI (SK-OV-3 ovarian) was 65.7 µM and the TGI (UO-31 renal) was 37.7 µM. It also gave a TGI (OVCAR-3 ovarian) of 54 µM, a TGI (OVCAR-5 ovarian) greater than 100 µM and a TGI (HL-60(TB) leukemia) greater than 100 µM. For the same compound, the TGI (SNB-75 CNS) was 58.3 µM, the TGI (OVCAR-8 ovarian) was greater than 100 µM and the TGI (OVCAR-4 ovarian) was greater than 100 µM. It also gave a TGI (BT-549 breast) of 44 µM, a TGI (SK-MEL-28 melanoma) of 76.6 µM and a TGI (CAKI-1 renal) of 51.6 µM. It also gave a TGI (HOP-62 NSCLC) of 48 µM and a TGI (U251 CNS) greater than 100 µM.
